In patent US10017527B2, “KLK4 inhibitors” (Universiteit Antwerpen, priority 2014, dated 2018):
Like-named read-outs stand apart in the source and are kept apart here.

Assays:
Type in all cases: biochemical
[1] = target: T1, KLK4 (Homo sapiens, UniProt Q9Y5K2); assay: KLK4 enzymatic inhibition, fluorogenic substrate Boc-Val-Pro-Arg-AMC
T1 construct: purchased Viktor Magdolen (TUM), supplied by an academic laboratory
Method: The substrate was obtained form Bachem and the enzyme was provided by Viktor Magdolen (TUM). The reaction was monitored with an excitation wavelength of 355 nm and emission wavelength of 460 nm. The initial rate was determined between 2500000 and 4500000 mRFU/min. The reaction mixture contained 25 μM substrate and approximately 1 mU of enzyme in 145 μL of buffer in a final volume of […]. A 50 mM Tris buffer, pH 8.3, was used. From each inhibitor concentration, 5 μL was added, obtaining a final concentration from 0 to 250 μM in a total volume of 0.2 mL. Activity measurements were routinely performed in duplicate. […] IC50 values were obtained by fitting the data with the four-parameter logistics equation using Grafit 7.
[formula] where s=slope factor, v=rate, I0=inhibitor concentration, and range=the fitted uninhibited value minus the background. The equation assumes they falls with increasing x.
(§1) Inhibitor stock solutions were prepared in DMSO and stored at −20° C. Because the compounds described in this paper completely inactivate KLK4 following pseudo first-order kinetics, the IC50 value is inversely correlated with the second-order rate constant of inactivation. For a simple pseudo first-order inactivation process, the activity after incubation with inhibitor (vi) varies with the inhibitor concentration (i), as described in the following equation: vi=v0×e^−k t, where vo is the activity in absence of inhibitor, k is the second-order rate constant of inactivation, and t is the time. The inactivation rate constant was determined from the time course of inhibition.

[2] = target: T2, KLK2 (human) (Homo sapiens, UniProt P20151); assay: KLK2 inhibition, fluorogenic substrate H-Pro-Phe-Arg-AMC
T2 construct: purchased Viktor Magdolen, TUMunich (TUM), supplied by an academic laboratory
From the text: (§2) The IC50 values For KLK1, KLK2 and KLK8 were obtained in a similar way. For plasmin, tPA, thrombin, Fxa, HNE, Plasma kallikrein Chromogenic substrates were used (absorption: 405 nm). (KLK2, KLK4, KLK8 were supplied by Viktor Magdolen TUMunich (TUM)).

[3] = target: T3, KLK1 (human) (Homo sapiens, UniProt P06870); assay: KLK1 inhibition, fluorogenic substrate H-Pro-Phe-Arg-AMC
T3 construct: purchased Prospec
From the text: as §2

[4] = target: T4, KLK8 (human) (Homo sapiens, UniProt O60259); assay: KLK8 inhibition, fluorogenic substrate Boc-Val-Pro-Arg-AMC
T4 construct: purchased Viktor Magdolen, TUMunich (TUM), supplied by an academic laboratory
T4 sequence (O60259 33-260): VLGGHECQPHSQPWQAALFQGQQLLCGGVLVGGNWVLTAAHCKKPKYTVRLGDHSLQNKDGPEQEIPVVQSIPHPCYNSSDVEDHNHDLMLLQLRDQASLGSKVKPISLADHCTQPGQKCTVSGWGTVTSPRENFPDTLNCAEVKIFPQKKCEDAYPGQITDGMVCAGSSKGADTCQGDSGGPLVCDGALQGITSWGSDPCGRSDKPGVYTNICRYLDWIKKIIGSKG
From the text: as §2

[5] = target: T5, uPA (recombinant) (Homo sapiens, UniProt P00749); assay: uPA inhibition, chromogenic substrate Biophen CS-61(44)
T5 construct: purchased Nodia

[6] = target: T6, Plasmine (human plasma) (Homo sapiens, UniProt P00747); assay: Plasmin inhibition, chromogenic substrate Biophen CS-21(66)
T6 construct: purchased Sigma-Aldrich; host or cells: human plasma
From the text: as §2

[7] = target: T7, Matriptase (Homo sapiens, UniProt Q9Y5Y6); assay: Matriptase inhibition
T7 sequence (Q9Y5Y6 1-855): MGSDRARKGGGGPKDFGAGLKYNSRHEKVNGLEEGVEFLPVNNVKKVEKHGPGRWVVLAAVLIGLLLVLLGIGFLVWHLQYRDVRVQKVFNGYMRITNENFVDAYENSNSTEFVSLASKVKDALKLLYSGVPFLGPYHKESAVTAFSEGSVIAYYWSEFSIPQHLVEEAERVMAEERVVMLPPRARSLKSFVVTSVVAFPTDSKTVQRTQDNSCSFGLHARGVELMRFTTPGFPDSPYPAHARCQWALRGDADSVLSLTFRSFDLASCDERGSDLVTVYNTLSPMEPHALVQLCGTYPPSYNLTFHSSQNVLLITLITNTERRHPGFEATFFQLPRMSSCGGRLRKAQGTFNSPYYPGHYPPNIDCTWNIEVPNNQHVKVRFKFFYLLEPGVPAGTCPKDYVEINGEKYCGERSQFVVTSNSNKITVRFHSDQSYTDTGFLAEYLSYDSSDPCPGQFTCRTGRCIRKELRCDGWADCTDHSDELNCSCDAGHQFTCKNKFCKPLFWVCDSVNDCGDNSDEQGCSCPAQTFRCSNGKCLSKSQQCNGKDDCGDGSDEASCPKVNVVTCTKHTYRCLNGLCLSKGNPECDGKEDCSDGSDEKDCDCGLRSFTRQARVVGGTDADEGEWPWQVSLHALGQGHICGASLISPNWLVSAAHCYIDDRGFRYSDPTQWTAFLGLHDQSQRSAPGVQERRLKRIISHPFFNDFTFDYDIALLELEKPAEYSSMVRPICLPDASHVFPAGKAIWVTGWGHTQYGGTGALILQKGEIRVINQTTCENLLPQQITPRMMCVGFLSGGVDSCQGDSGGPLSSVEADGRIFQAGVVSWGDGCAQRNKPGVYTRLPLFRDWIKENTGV

[8] = target: T1, KLK4; assay: KLK4 inactivation kinetics from progress curves (kobs vs inhibitor concentration); conditions: for Irreversible (KLK4): irreversible binding to KLK4, Yes/No
Method: as §1
The inhibitor was mixed with the substrate (250 μM final concentration), and the buffer solution with the enzyme was added at the time zero. […] The progress curves show the absorbance of aminomethylcoumarine produced as a function of time. Initially, no inhibitor is bound to the enzyme, and the tangent to the progress curve (dA/dt) is proportional to the concentration of the free enzyme. The concentration of free enzyme decreases over time due to the kinetics of inhibitor binding, as described above. Progress curves were recorded in pseudo first-order conditions ([I]0>>[E]0) and with less than 10% conversion of the substrate during the entire time course. In these conditions, dA/dt decreases exponentially with time. The progress curves were fitted with the integrated rate equation to yield a value for kobs, a pseudofirst-order rate constant At=v0[1−e^−k^obs^t]/kobs+A0 where At=absorbance at time t, A0=absorbance at time zero, and v0=uninhibited initial rate.
The apparent second-order rate constant (kapp) was calculated from the slope of the linear part of the plot of kobs versus the inhibitor concentration ([I]0). In case of competition between the inhibitor and the substrate, kapp is smaller than the “real” second order rate constant k discussed above because a certain fraction of the enzyme is present as an enzyme-substrate complex. kapp depends on the substrate concentration used in the experiment, as described by Lambeir et al. (Lambeir, Borloo et al. 1996).

[9] = target: T8, tPA (recombinant) (Homo sapiens, UniProt P00750); assay: tPA inhibition, chromogenic substrate Biophen CS-05(88); conditions: Tris buffer pH 8.3; read-out: IC50 tPA
T8 construct: purchased Nodia
From the text: as §2

[10] = target: T9, Thrombine (human plasma) (Homo sapiens, UniProt P00734); assay: Thrombin inhibition, chromogenic substrate Biophen CS-21(66)
T9 construct: purchased Sigma-Aldrich; host or cells: human plasma

[11] = target: T10, FXa (Homo sapiens, UniProt P00742); assay: FXa inhibition, chromogenic substrate Biophen CS-11(32); conditions: Tris buffer pH 8.3; read-out: IC50 FXa
T10 construct: purchased Nodia
From the text: as §2

[12] = target: T11, PlasmaKLK (human plasma) (Homo sapiens, UniProt P03952); assay: Plasma kallikrein inhibition, chromogenic substrate Biophen CS-31(02); conditions: Plasma KLK; Tris buffer pH 7.8; read-out: IC50 pKLK
T11 construct: purchased Sigma-Aldrich; host or cells: human plasma
From the text: as §2

[13] = 15 min pre-incubation at 37° C., Tris buffer pH 8.3, read-out: IC50 KLK4
[14] = Tris buffer pH 8.8, read-out: IC50 uPA
[15] = Thrombin, Tris buffer pH 8.3, read-out: IC50 THR
[16] = Plasmin, Tris buffer pH 7.4, read-out: IC50 PLM
[17] = Tris buffer pH 7.8, read-out: IC50 KLK1

T3 sequence (P06870 25-262): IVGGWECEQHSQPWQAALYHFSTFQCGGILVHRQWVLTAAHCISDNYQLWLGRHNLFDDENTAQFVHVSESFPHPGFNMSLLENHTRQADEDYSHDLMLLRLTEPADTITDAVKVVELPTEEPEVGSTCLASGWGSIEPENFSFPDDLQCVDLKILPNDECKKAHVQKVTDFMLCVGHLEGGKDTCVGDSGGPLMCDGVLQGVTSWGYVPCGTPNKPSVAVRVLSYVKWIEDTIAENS
T8 sequence (P00750 36-562, species assumed): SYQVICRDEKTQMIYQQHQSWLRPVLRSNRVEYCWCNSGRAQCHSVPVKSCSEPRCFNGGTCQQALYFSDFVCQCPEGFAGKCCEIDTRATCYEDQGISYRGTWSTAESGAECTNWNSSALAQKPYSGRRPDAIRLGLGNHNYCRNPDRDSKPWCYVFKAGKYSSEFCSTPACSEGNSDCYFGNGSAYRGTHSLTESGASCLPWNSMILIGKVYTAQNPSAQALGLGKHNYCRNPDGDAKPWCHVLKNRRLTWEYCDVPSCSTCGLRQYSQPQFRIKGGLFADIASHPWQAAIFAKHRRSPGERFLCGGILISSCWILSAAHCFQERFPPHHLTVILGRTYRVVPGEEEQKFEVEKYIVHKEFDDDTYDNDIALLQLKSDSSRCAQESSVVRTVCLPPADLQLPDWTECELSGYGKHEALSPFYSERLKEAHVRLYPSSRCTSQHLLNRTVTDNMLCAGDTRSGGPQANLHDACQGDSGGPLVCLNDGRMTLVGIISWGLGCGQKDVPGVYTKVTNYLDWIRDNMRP
T6 sequence (P00747 581-810 limits assumed): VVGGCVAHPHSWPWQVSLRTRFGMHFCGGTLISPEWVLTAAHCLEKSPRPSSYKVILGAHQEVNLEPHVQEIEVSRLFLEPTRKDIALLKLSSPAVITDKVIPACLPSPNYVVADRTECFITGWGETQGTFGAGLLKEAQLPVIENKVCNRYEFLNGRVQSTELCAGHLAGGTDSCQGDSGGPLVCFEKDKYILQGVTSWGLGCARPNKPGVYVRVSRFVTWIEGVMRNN
T6 sequence (P00747 98-580 partner limits assumed): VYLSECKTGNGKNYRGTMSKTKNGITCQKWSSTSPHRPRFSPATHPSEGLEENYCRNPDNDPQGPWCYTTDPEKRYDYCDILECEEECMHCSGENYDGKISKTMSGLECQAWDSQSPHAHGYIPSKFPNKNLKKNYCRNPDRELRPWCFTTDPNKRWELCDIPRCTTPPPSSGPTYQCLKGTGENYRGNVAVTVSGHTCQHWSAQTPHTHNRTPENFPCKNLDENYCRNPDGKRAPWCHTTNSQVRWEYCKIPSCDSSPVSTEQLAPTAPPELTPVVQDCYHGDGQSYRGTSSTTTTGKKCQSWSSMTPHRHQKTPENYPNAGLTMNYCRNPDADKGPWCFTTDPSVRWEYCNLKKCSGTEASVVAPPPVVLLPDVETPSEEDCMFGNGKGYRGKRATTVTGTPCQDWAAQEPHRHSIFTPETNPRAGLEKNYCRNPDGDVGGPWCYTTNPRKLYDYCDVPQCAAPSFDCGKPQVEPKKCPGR
T11 sequence (P03952 391-638 limits assumed): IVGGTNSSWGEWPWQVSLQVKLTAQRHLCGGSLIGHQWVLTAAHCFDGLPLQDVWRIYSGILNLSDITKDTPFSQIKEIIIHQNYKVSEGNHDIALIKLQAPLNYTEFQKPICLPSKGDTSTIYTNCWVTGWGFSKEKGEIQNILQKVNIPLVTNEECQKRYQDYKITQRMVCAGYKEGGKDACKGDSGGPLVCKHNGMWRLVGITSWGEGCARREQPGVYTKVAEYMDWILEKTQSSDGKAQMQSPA
T11 sequence (P03952 20-390 partner limits assumed): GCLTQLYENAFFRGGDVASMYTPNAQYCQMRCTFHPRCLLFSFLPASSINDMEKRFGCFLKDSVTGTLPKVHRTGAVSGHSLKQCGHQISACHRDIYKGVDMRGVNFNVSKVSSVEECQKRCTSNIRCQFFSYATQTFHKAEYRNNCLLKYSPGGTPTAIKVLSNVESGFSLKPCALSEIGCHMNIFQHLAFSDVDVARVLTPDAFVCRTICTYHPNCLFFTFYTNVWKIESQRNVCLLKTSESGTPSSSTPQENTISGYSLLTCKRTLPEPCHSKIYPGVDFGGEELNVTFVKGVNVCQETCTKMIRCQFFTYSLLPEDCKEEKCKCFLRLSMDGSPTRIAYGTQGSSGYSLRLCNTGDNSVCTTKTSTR
T2 sequence (P20151 25-261): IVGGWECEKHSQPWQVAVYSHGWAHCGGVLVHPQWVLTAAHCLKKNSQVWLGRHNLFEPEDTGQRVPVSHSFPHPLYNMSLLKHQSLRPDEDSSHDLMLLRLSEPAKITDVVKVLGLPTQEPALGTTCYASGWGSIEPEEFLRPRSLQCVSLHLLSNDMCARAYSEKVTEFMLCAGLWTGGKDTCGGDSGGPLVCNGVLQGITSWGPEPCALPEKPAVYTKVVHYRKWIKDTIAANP
T1 sequence (Q9Y5K2 31-254): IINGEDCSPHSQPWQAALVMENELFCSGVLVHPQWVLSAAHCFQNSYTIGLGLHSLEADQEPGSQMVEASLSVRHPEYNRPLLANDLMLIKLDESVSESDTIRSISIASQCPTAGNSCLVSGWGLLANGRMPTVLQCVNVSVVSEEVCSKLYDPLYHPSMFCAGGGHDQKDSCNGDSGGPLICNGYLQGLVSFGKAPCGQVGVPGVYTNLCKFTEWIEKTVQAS
T10 sequence (P00742 235-488 limits assumed): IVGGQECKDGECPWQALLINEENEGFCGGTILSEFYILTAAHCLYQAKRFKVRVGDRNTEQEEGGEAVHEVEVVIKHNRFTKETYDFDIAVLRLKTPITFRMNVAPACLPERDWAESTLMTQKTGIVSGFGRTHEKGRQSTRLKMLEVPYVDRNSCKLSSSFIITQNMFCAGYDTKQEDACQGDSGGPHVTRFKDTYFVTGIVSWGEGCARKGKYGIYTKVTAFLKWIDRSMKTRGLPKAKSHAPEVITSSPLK
T10 sequence (P00742 41-179 partner limits assumed): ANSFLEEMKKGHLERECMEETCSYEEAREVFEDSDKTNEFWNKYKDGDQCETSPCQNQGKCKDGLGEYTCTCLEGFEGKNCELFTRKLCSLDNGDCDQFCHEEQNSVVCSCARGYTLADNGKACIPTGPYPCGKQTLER

Molecule | IC50 [1] | IC50 [2] | IC50 [3] | IC50 [4] | IC50 [5] | IC50 [6] | IC50 [7] | kapp KLK4 ([8]; apparent second-order rate constant, substrate 250 μM) | Irreversible (KLK4) [8] | IC50 [1, 13] | IC50 [5, 14] | IC50 [9] | IC50 [10, 15] | IC50 [6, 16] | IC50 [11] | IC50 [12] | IC50 [3, 17] | IC50 ([7]; Matriptase, read-out: IC50 MAT) | IC50 [10]
N=C(N)Nc1ccc(C(NC(=O)OCCCC(F)(F)F)P(=O)(Oc2ccccc2)Oc2ccccc2)cc1 (centres unmarked) [Compound 107, 4,4,4-trifluorobutyl ((diphenoxyphosphoryl)(4-guanidinophenyl)methyl) carbamate] | < 0.1 µM | 0.1 to 1 µM | 2.5 to 10 µM | 2.5 to 10 µM | 2.5 to 10 µM | 10 to 250 µM | 2.5 to 10 µM | – | – | – | – | – | – | – | – | – | – | – | –
CSCCOC(=O)NC(c1ccc(NC(=N)N)cc1)P(=O)(Oc1ccccc1)Oc1ccccc1 (centres unmarked) [Compound 108, 2-(methylthio)ethyl ((diphenoxyphosphoryl)(4-guanidinophenyl)methyl) carbamate] | < 0.1 µM | 0.1 to 1 µM | 1 to 2.5 µM | 1 to 2.5 µM | 2.5 to 10 µM | 10 to 250 µM | 2.5 to 10 µM | – | – | – | – | – | – | – | – | – | – | – | –
N=C(N)Nc1ccc(C(NC(=O)OCc2c(F)c(F)c(F)c(F)c2F)P(=O)(Oc2ccccc2)Oc2ccccc2)cc1 (centres unmarked) [Compound 109, (perfluorophenyl)methyl ((diphenoxyphosphoryl)(4-guanidinophenyl)methyl) carbamate] | < 0.1 µM | 0.1 to 1 µM | 0.1 to 1 µM | 1 to 2.5 µM | 2.5 to 10 µM | 10 to 250 µM | 1 to 2.5 µM | – | – | – | – | – | – | – | – | – | – | – | –
COCCOCCOCCOC(=O)NC(c1ccc(NC(=N)N)cc1)P(=O)(Oc1ccccc1)Oc1ccccc1 (centres unmarked) [Compound 110, 2-(2-(2-methoxyethoxy)ethoxy)ethyl ((diphenoxyphosphoryl)(4-guanidinophenyl)methyl)carbamate] | < 0.1 µM | – | 2.5 to 10 µM | 1 to 2.5 µM | 2.5 to 10 µM | 10 to 250 µM | 2.5 to 10 µM | 19600 M⁻¹ s⁻¹ | Yes/ | – | – | – | – | – | – | – | – | – | –
N=C(N)Nc1ccc(C(NS(=O)(=O)c2ccccc2)P(=O)(Oc2ccccc2)Oc2ccccc2)cc1 (centres unmarked) [Compound 127, diphenyl ((4-guanidinophenyl)(phenylsulfonamido)methyl)phosphonate] | – | – | – | – | – | – | – | – | – | 2.5 to 10 µM | 2.5 to 10 µM | 2.5 to 10 µM | 2.5 to 10 µM | 2.5 to 10 µM | 2.5 to 10 µM | 2.5 to 10 µM | – | – | –
N=C(N)Nc1ccc(C(NS(=O)(=O)c2ccc(C(F)(F)F)cc2)P(=O)(Oc2ccccc2)Oc2ccccc2)cc1 (centres unmarked) [Compound 130] | – | – | – | – | – | – | – | – | – | < 0.1 µM | – | – | – | – | – | – | – | – | –
N=C(N)Nc1ccc(C(NC(=O)OCCOCCOCc2cn(CCOCCOCCOCCNC(=O)CCCC[C@H]3SC[C@H]4NC(=O)N[C@H]43)nn2)P(=O)(Oc2ccccc2)Oc2ccccc2)cc1 (stereo partly drawn) [Compound 135, 2-(2-((1-(13-oxo-17-((3aR,4R,6aS)-2-oxohexahydro-1H-thieno[3,4-d]imidazol-4-yl)-3,6,9-trioxa-12-azaheptadecyl)-1H-1,2,3-triazol-4-yl)methoxy)ethoxy)ethyl ((diphenoxyphosphoryl)(4-guanidinophenyl)methyl)carbamate] | – | – | – | – | – | – | – | – | – | < 0.1 µM | 2.5 to 10 µM | – | 10 to 250 µM | 10 to 250 µM | 10 to 250 µM | 10 to 250 µM | 2.5 to 10 µM | 2.5 to 10 µM | –
C#CCOCCOCCOC(=O)NC(Cc1ccc(NC(=N)N)cc1)P(=O)(Oc1ccccc1)Oc1ccccc1 (centres unmarked) [UPA2, reference compound] | – | – | – | – | < 0.1 µM | – | – | – | No | – | – | > 250 µM | – | 2.5 to 10 µM | > 250 µM | 10 to 250 µM | – | 0.1 to 1 µM | 10 to 250 µM
diphenyl ((4-guanidinophenyl)(4-methoxyphenylsulfonamido)methyl)phosphonate [Compound 132] | – | – | – | – | – | – | – | – | – | 0.1 to 1 µM | 2.5 to 10 µM | 2.5 to 10 µM | 2.5 to 10 µM | 2.5 to 10 µM | 2.5 to 10 µM | 2.5 to 10 µM | 2.5 to 10 µM | – | –
diphenyl ((4-guanidinophenyl)(phenylsulfonamido)methyl)phosphonate [Compound 128] | – | – | – | – | – | – | – | – | – | 0.1 to 1 µM | 2.5 to 10 µM | 2.5 to 10 µM | 2.5 to 10 µM | 2.5 to 10 µM | 2.5 to 10 µM | 2.5 to 10 µM | – | – | –
